One may read the EC50 as the concentration at which the effect is half-maximal. As usually defined, the logD is the decadic logarithm of the distribution of all forms, ionised or not, between an organic phase and buffer at a given pH. Lower therefore signals lower lipophilicity.

The source made the active and inactive calls. The calls are words filed in the database; no cut-off is given here. Some results are limits rather than exact numbers.

The nature of data set [1]: Phototoxicity against human SK-MEL-28 cells assessed as reduction in cell viability preincubated for 12 hrs followed by 15 mins of light irradiation and measured after 24 hrs by neutral red uptake assay. Format: functional, cell-based. To be noted: SK-MEL-28, light or radiation study.
Data set [2] can be described thus: Dark toxicity against human SK-MEL-28 cells assessed as reduction in cell viability incubated for 24 hrs by neutral red uptake assay. The conditions noted are these: read-out: TC50. Format: cell-based.
Data set [3] can be described thus: Selectivity index, ratio of TC50 for human SK-MEL-28 cells to EC50 for human SK-MEL-28 cells.
Data set [4] can be described thus: Phototoxicity against human HeLa cells assessed as reduction in cell viability preincubated for 12 hrs followed by 15 mins of light irradiation and measured after 24 hrs by neutral red uptake assay. Format: functional, cell-based. The conditions noted are these: light or radiation study.
The nature of data set [5]: Dark toxicity against human HeLa cells assessed as reduction in cell viability incubated for 24 hrs by neutral red uptake assay. It counts as cell-based. To be noted: read-out: TC50.
Data set [6] can be described thus: Selectivity index, ratio of TC50 for human HeLa cells to EC50 for human HeLa cells.
A short description of data set [7]: Absorption maximum of the compound in EtOH. It counts as physicochemical.
Data set [8] can be described thus: Absorption maximum of the compound in THF. Format: physicochemical.
The nature of data set [9]: Absorption property of the compound in THF assessed as extinction coefficient. It counts as physicochemical.
Data set [10] is described as follows: Emission maximum of the compound in THF. It counts as physicochemical.
Data set [11] in a line: Fluorescence property of compound in EtOH assessed as quantum yield. Format: physicochemical.
Data set [12] is described as follows: Fluorescence property of compound in THF assessed as quantum yield. Format: physicochemical.
A short description of data set [13]: Induction of singlet oxygen generation in EtOH assessed as singlet oxygen quantum yield. Format: functional.
Data set [14] can be described thus: Induction of singlet oxygen generation in THF assessed as singlet oxygen quantum yield. It counts as functional.
The nature of data set [15]: Fluorescence property of compound in acetone assessed as quantum yield. Format: physicochemical.
A short description of data set [16]: Drug uptake in human SK-MEL-28 cells assessed per mg protein measured upto 12 hrs by spectrofluorometric method. Format: ADME, cell-based. The conditions noted are these: sk-mel-28, 12 h.
A short description of data set [17]: Drug uptake in human HeLa cells assessed per mg protein measured upto 12 hrs by spectrofluorometric method. It counts as ADME, cell-based.
A short description of data set [18]: Drug localization in adiposome of human SK-MEL-28 cells at 1 uM after 12 hrs by confocal microscopy analysis. The conditions noted are these: sk-mel-28, 12 h. Format: ADME, subcellular.
Data set [19] can be described thus: Drug localization in adiposome of human HeLa cells at 1 uM after 12 hrs by confocal microscopy analysis. It counts as ADME, subcellular.
Data set [20] deals with SK-MEL-28. Kind of data set: Induction of apoptosis in human SK-MEL-28 cells at EC50 concentration preincubated for 12 hrs followed by 15 mins light irradiation and measured every 15 mins for 48 hrs by real time-glo Annexin V assay. Format: functional, cell-based. To be noted: time 3615.0 min.
Data set [21] is described as follows: n-Octanol/PBS partition coefficient, logP of the compound at pH 7.4 at 100 uM after 5 mins. Format: physicochemical.
Data set [22] can be described thus: Fluorescence property of compound in THF assessed as life time. It counts as physicochemical.
For data set [23], the system named is HeLa. Kind of data set: Potency index, ratio of temo-porfin EC50 to test compound EC50 for phototoxicity against human HeLa cells. It counts as functional.
In data set [24] the test system is HeLa. Kind of data set: Potency index, ratio of S3AlOHPc EC50 to test compound EC50 for phototoxicity against human HeLa cells. Format: functional.
For data set [25], the system named is HeLa. Kind of data set: Potency index, ratio of PpXI EC50 to test compound EC50 for phototoxicity against human HeLa cells. Format: functional.
Data set [26] is described as follows: Drug localization in endo-lysosome of human SK-MEL-28 cells at 1 uM after 12 hrs by confocal microscopy analysis. To be noted: sk-mel-28, 12 h. Format: ADME, subcellular.
The nature of data set [27]: Drug localization in endo-lysosome of human HeLa cells at 1 uM after 12 hrs by confocal microscopy analysis. It counts as ADME, subcellular.

Consider `Fc1c(F)c(F)c2c(c1F)C1=Nc3c4c(F)c(F)c(F)c(F)c4c4n3[B-]3(OCc5ccc6c(c5)OCCOCCOCCOCCOCCO6)n5c(c6c(F)c(F)c(F)c(F)c6c5=N4)=NC2=[N+]13` (configuration not stated), for which the EC50 turned out to be 16.3 µM in [1] and 6.4 µM in data set [4]. In addition, the values for the CC50 at 24 h in data set [2] and in [5] were 18.9 µM and 6.78 µM, respectively. Also, the “Selectivity Index” value in [3] was 1.16; in [6], 1.06. In addition, the Activity in data set [7] is 567 nm; in data set [8] it was 568 nm; in data set [9] it was 81000 M⁻¹ cm⁻¹; in data set [10], 579 nm; in data set [11], 0.014; in data set [12], 0.014. Also, the results for the Activity in data set [13] and in data set [14] were 0.056 and 0.086, respectively.

For `c1ccc(O[B-]23n4c5c6ccccc6c4N=c4c6ccccc6c(n42)=NC2=[N+]3C(=N5)c3ccccc32)cc1` (configuration not stated), the figures for the Activity in [8] and in data set [15] were 563 nm and 0.18, respectively.

As to `CCSc1ccc2c(c1)C1=Nc3c4ccc(SCC)cc4c4n3[B@-]3(Oc5ccc(C[C@H](N)C(=O)OC)cc5)n5c(c6cc(SCC)ccc6c5=N4)=NC2=[N+]13`, the EC50 is 0.22 µM in data set [1] and 0.12 µM in data set [4]. Besides, the CC50 at 24 h in data set [2] is over 100 µM; in data set [5], 68.8 µM. Moreover, the “Selectivity Index” value in data set [3] was over 455; in data set [6] it was 573. Also, the Drug uptake in data set [16] is 0.367 nmol/mg; in data set [17] it was 0.622 nmol/mg; in [18], “Active”; in data set [19], “Active”. In addition, the outcome in data set [20] was Active. The pH-dependent lipophilicity (logD) at 5 min, 100 µM in data set [21] was found to be 1.93. The Activity was 583 nm in data set [7]; 579 nm in data set [8]; 66510 M⁻¹ cm⁻¹ in data set [9]; 594 nm in data set [10]; 0.16 in data set [11]; 0.17 in data set [12]. Also, the Activity in data set [22] was 1.71 nanoseconds; in data set [13] it was 0.5; in data set [14] it was 0.49.

With `Cl[B-]12n3c4c5ccc(I)cc5c3N=c3c5ccc(I)cc5c(n31)=NC1=[N+]2C(=N4)c2ccc(I)cc21` (configuration not stated), the Activity was determined as 569 nm in data set [7]; 572 nm in data set [8]; 65160 M⁻¹ cm⁻¹ in data set [9]; 581 nm in data set [10]; 0.03 in [11]; 0.03 in [12]. Also, the figures for the Activity in data set [22], in [13] and in data set [14] were 0.3 nanoseconds, 0.77 and 0.7, respectively.

With `Ic1ccc2c(c1)C1=[N+]3C2=Nc2c4ccc(I)cc4c4n2[B@-]3(OCc2ccc3c(c2)OCCOCCOCCOCCOCCO3)n2c(c3cc(I)ccc3c2=N4)=N1`, the EC50 in data set [1] was 0.038 µM; in data set [4], 0.066 µM. The CC50 at 24 h was 71.8 µM in data set [2] and 23.5 µM in data set [5]. The “Selectivity Index” value in data set [3] was found to be 1891; in data set [6], 356. Moreover, the Drug uptake in [16] was 0.005 nmol/mg; in [17], 0.33 nmol/mg; in data set [18] it was “Active”; in data set [19], “Active”. In addition, the outcome in data set [20] was Active. Further, the Activity in data set [7] is 569 nm; in data set [8], 568 nm; in data set [9] it was 80750 M⁻¹ cm⁻¹; in [10], 578 nm; in data set [11], 0.022; in data set [12], 0.022. The Activity was 0.35 nanoseconds in data set [22], 0.59 in data set [13] and 0.57 in [14].

As for `COC(=O)[C@@H](N)Cc1ccc(O[B-]23n4c5c6ccc(I)cc6c4N=c4c6ccc(I)cc6c(n42)=NC2=[N+]3C(=N5)c3ccc(I)cc32)cc1` (some centres not stated), the EC50 in [1] and in data set [4] was over 100 µM throughout. Moreover, the CC50 at 24 h in data set [2] and in data set [5] was over 100 µM each time. In [21], this compound came in with a logD at 5 min, 100 µM of 1.79. In addition, the Activity in [7] is 569 nm; in data set [8] it was 568 nm; in [9], 37460 M⁻¹ cm⁻¹; in data set [10], 578 nm; in [11], 0.01; in [12], 0.01. The Activity in [22] came out at 0.34 nanoseconds; in [13] it was 0.29; in data set [14], 0.49.

As for `CCSc1ccc2c(c1)C1=Nc3c4ccc(SCC)cc4c4n3[B-]3(Oc5ccc(C[C@H](NC(=O)OC(C)(C)C)C(=O)OC)cc5)n5c(c6cc(SCC)ccc6c5=N4)=NC2=[N+]13` (some centres not stated), the EC50 stood at 4.77 µM in data set [1] and 4.45 µM in data set [4]. Further, the CC50 at 24 h in data set [2] and in [5] was over 100 µM each time. Moreover, the results for the “Selectivity Index” value in [3] and in [6] were over 21 and over 22, respectively. In addition, the Drug uptake was 0.033 nmol/mg in data set [16], 0.121 nmol/mg in [17], “Active” in [18] and “Active” in data set [19]. Also, the result in data set [20] was Active. The compound also came in with a logD at 5 min, 100 µM in data set [21] of 2.63. The Activity worked out at 582 nm in data set [7]; 581 nm in [8]; 97450 M⁻¹ cm⁻¹ in data set [9]; 596 nm in data set [10]; 0.2 in data set [11]; 0.19 in data set [12]. Further, the Activity in [22] was found to be 1.69 nanoseconds; in [13], 0.7; in data set [14] it was 0.64.

`CCSc1ccc2c(c1)C1=Nc3c4ccc(SCC)cc4c4n3[B-]3(OCc5ccc6c(c5)OCCOCCOCCOCCOCCO6)n5c(c6cc(SCC)ccc6c5=N4)=NC2=[N+]13` (configuration not stated): the EC50 in [1] was 0.0023 µM; in [4], 0.0044 µM. Also, the CC50 at 24 h in [2] worked out at 14.5 µM; in [5], 5.25 µM. The “Selectivity Index” value in data set [3] is given as 6300; in data set [6], 1193. Moreover, the “Ratio EC50” value in data set [23] came to 10; in data set [24], 470; in data set [25], 182. The Drug uptake in data set [16] is 2.66 nmol/mg; in [17], 9.69 nmol/mg; in data set [26], “Active”; in data set [27] it was “Active”. The result in data set [20] was Active. This compound displayed a log distribution coefficient (logD) at 5 min, 100 µM in [21] of 1.92. Besides, the Activity in [7] stood at 583 nm; in data set [8], 578 nm; in data set [9], 92080 M⁻¹ cm⁻¹; in data set [10] it was 594 nm; in data set [11] it was 0.2; in data set [12], 0.21. The Activity was found to be 1.77 nanoseconds in data set [22], 0.72 in data set [13] and 0.57 in data set [14].

Regarding `COC(=O)[C@H](Cc1ccc(O[B-]23n4c5c6c(F)c(F)c(F)c(F)c6c4N=c4c6c(F)c(F)c(F)c(F)c6c(n42)=NC2=[N+]3C(=N5)c3c(F)c(F)c(F)c(F)c32)cc1)NC(=O)OC(C)(C)C` (some centres not stated), the 50% effective concentration (EC50) in [1] stood at 66.2 µM; in data set [4] it was 64 µM. Further, the values for the CC50 at 24 h in data set [2] and in data set [5] were over 100 µM and 65.7 µM, respectively. The “Selectivity Index” value in data set [3] is reported as over 1.51; in data set [6], 1.03. For the same compound, the Activity in [7] worked out at 567 nm; in data set [8] it was 568 nm; in data set [9], 27790 M⁻¹ cm⁻¹; in data set [10] it was 578 nm; in data set [11] it was 0.09; in [12], 0.09. The Activity in data set [13] and in data set [14] was 0.19 throughout.

Take `COC(=O)[C@H](Cc1ccc(O[B@@-]23n4c5c6ccc(I)cc6c4N=c4c6ccc(I)cc6c(n42)=NC2=[N+]3C(=N5)c3ccc(I)cc32)cc1)NC(=O)OC(C)(C)C`: the EC50 was 11.8 µM in data set [1] and 12.2 µM in [4]. Further, the CC50 at 24 h in data set [2] and in data set [5] was over 50 µM each time. Besides, the “Selectivity Index” value in [3] and in [6] was over 4 throughout. Moreover, the Drug uptake result in data set [18] and in data set [19] was “Active” in each case. In data set [21], this compound came in with a logD at 5 min, 100 µM of 2.22. The Activity amounted to 568 nm in data set [7]; 569 nm in data set [8]; 106120 M⁻¹ cm⁻¹ in data set [9]; 577 nm in data set [10]; 0.03 in [11]; 0.03 in [12]. For the same compound, the results for the Activity in data set [22], in data set [13] and in [14] were 0.3 nanoseconds, 0.86 and 0.64, respectively.

These data come from ChEMBL document CHEMBL5053548, “Subphthalocyanines as Efficient Photosensitizers with Nanomolar Photodynamic Activity against Cancer Cells” (J Med Chem, 2021).
